Assay results published in paper PMC5504166, “Rosmarinic Acid Protects against Inflammation and Cardiomyocyte Apoptosis during Myocardial Ischemia/Reperfusion Injury by Activating Peroxisome Proliferator-Activated Receptor Gamma” (Frontiers in Pharmacology, 2017).

Tests used:
[1] = target: T1, PTGS2/COX2 (Prostaglandin G/H synthase 2) (Ovis aries, UniProt P79208); assay: Colorimetric COX (ovine) inhibitor screening assay kit (Cayman); assay type: biochemical; settings: read-out: IC50 (mean ± SD μM)
T1 sequence (P79208 17-603): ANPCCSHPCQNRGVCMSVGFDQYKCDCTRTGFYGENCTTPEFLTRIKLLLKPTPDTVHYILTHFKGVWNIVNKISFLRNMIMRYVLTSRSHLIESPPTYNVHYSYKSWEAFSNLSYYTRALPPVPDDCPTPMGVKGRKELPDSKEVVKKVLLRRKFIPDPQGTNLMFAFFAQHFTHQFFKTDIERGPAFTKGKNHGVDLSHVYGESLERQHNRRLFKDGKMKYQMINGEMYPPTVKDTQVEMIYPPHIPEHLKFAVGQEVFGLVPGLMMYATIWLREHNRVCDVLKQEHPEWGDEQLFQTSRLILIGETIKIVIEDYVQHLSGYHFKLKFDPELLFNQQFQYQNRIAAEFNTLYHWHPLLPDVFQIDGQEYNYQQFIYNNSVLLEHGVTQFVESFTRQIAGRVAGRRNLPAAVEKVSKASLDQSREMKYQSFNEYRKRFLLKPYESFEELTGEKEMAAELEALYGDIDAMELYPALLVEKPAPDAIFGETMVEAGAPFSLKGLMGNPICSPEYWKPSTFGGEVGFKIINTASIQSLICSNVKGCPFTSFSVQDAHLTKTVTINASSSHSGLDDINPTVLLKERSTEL

PPARγ = target: T2, PPARγ (Homo sapiens, UniProt P37231); assay: PolarScreen PPAR Gamma Competitor Assay, Green (fluorescence polarization competition); assay type: binding; settings: read-out: EC50 (mean ± SD μM)
T2 construct: gene PPARG
T2 sequence (P37231 1-505): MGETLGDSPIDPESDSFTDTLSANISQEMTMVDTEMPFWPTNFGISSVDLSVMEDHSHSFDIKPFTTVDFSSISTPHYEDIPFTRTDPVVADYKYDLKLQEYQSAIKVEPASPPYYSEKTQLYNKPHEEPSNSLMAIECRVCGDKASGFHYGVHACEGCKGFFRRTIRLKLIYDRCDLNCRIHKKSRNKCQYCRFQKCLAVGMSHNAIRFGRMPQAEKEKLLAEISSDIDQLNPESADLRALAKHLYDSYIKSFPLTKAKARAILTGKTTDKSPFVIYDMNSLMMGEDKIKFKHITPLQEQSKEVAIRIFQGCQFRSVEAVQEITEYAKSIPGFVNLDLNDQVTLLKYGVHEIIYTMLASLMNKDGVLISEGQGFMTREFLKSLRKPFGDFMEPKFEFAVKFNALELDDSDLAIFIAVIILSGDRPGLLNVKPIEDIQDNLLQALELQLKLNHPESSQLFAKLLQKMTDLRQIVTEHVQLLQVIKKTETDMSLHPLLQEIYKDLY

`O=C(/C=C/c1ccc(O)c(O)c1)O[C@H](Cc1ccc(O)c(O)c1)C(=O)O` [RosA, Rosmarinic acid] showed an IC50 [1] of 170 ± 9.18 µM and an EC50 (PPARγ) of 55.8 ± 3.45 µM.
